Source: US9795602B2, “Polycyclic-carbamoylpyridone compounds and their pharmaceutical use” (Gilead Sciences, Inc., priority 2014, dated 2017)
Read-outs that look alike come from different tables or passages of the source.

Assays:
Type in all cases: cell-based
[1] = Cytotoxicity (CC50) in MT4 cells, mock-infected; conditions: human
Protocol: (§1) Infected and uninfected cells are diluted in cell growth medium and 35 μL of 2000 (for MT4) cells is added to each well of the assay plates. Assay plates were then incubated in a 37° C. incubator. After 5 days of incubation, 25 μL of 2× concentrated CellTiter-Glo™ Reagent (catalog # G7573, Promega Biosciences, Inc., Madison, Wis.) was added to each well of the assay plate. Cell lysis was carried out by incubating at room temperature for 2-3 minutes, and then chemiluminescence was read using the Envision reader (PerkinElmer).

HIV-IIIb = experiment: Antiviral assay in MT4 cells; conditions: Human immunodeficiency virus 1, IIIB, MT4, 120 h
Protocol: 1 mL aliquots of 2×10^6 MT4 cells are pre-infected for 1 and 3 hours respectively at 37° C. with 25 μL (MT4) or of either cell growth medium (mock-infected) or a fresh 1:250 dilution of an HIV-IIIb concentrated ABI stock (0.004 m.o.i. for MT4 cells). Infected and uninfected cells are diluted in cell growth medium and 35 μL of 2000 (for MT4) cells is added to each well of the assay plates.
as §1, with “Assay” for “Infected and uninfected cells are diluted in cell growth medium and 35 μL of 2000 (for MT4) cells is added to each well of the assay plates. Assay”

PXR (NR1I2) = PXR (NR1I2) (Homo sapiens (Human), UniProt O75469); experiment: Human PXR activation assay (luciferase reporter, DPX2 cells); conditions: human
Protocol: Luciferase Reporter Gene Assay.
A stably transformed tumor cell line (DPX2) was plated on 96-well microtiter plates. […]. The number of viable cells was determined and the reporter gene activity was assessed. […]

[2] = MT4 cells, HIV-IIIb, 5 days, read-out: EC50
[3] = 15 uM, DPX2 cells, % Emax relative to rifampicin, adjusted for DMSO background, read-out: PXR % inh at 15 uM (adjusted)

Sequence of PXR (NR1I2) (O75469 whole entry): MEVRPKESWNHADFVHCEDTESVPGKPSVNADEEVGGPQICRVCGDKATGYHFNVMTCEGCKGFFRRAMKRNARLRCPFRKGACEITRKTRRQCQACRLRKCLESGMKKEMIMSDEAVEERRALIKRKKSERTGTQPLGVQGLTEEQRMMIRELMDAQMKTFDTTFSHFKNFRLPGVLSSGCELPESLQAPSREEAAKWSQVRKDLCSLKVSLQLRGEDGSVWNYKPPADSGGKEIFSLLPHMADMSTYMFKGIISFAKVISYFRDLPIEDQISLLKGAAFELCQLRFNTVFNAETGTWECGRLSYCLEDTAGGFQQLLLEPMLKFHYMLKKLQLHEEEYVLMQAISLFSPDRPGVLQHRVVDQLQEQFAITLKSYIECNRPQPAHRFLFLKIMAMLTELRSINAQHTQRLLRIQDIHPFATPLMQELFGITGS

Row | SMILES | EC50 (HIV-IIIb; [2]) [µM] | inhibition at 24 h, 15 µM (PXR (NR1I2); [3]) [%] | inhibition at 24 h, 15 µM (PXR (NR1I2)) [%] | CC50 at 5 days ([1]; mock-infected) [µM] | CC50 at 5 days ([1]; mock-infected (uninfected)) [µM] | EC50 (HIV-IIIb) [µM] | inhibition at 15 µM (PXR (NR1I2)) [%] | inhibition at 15 µM (PXR (NR1I2); [3]) [%]
1 | CCCN1C(=O)c2c(O)c(=O)c(C(=O)NCc3c(F)cc(F)cc3F)cn2[C@@H]2CCO[C@@H]21 (racemic) [Compound 24] | 0.00729 | 29 | – | 37.5 | – | – | – | –
2 | CN1C(=O)c2c(O)c(=O)c(C(=O)NCc3c(F)cc(F)cc3F)cn2[C@@H]2CCCC[C@H]21 [Compound 1] | 0.00643 | – | 32 | – | 27.3 | – | – | –
3 | CCN1C(=O)c2c(O)c(=O)c(C(=O)NCc3c(F)cc(F)cc3F)cn2[C@@H]2CCCC[C@@H]21 [Compound 5] | 0.00474 | 66 | – | – | 17 | – | – | –
4 | O=C(NCc1c(F)cc(F)cc1F)c1cn2c(c(O)c1=O)C(=O)N(CC(F)(F)F)[C@@H]1CCCC[C@H]12 [Compound 7] | 0.0149 | 36 | – | – | 19.8 | – | – | –
5 | O=C(NCc1c(F)cc(F)cc1F)c1cn2c(c(O)c1=O)C(=O)N(CC(F)(F)F)[C@@H]1CCOC[C@H]12 [Compound 8] | 0.0165 | 24 | – | – | 57.1 | – | – | –
6 | CN1C(=O)c2c(O)c(=O)c(C(=O)NCc3c(F)cc(F)cc3F)cn2[C@H]2COCC[C@]21C(F)F [Compound 9] | – | – | – | – | 11.3 | 0.0014 | 27 | –
7 | CN1C(=O)c2c(O)c(=O)c(C(=O)NCc3c(F)cc(F)cc3F)cn2[C@@H]2CCOC[C@H]21 [Compound 10] | 0.00765 | – | – | – | 34.9 | – | – | –
8 | CCN1C(=O)c2c(O)c(=O)c(C(=O)NCc3ccc(F)c(Cl)c3F)cn2[C@@H]2CCOC[C@H]21 [Compound 13] | 0.0107 | 5 | – | – | 7.32 | – | – | –
9 | CCN1C(=O)c2c(O)c(=O)c(C(=O)NCc3cc(Cl)c(F)cc3F)cn2[C@H]2CCOC[C@H]21 [Compound 15] | 0.00792 | 6 | – | – | 14.9 | – | – | –
10 | CCN1C(=O)c2c(O)c(=O)c(C(=O)NCc3cc(F)c(F)cc3F)cn2[C@H]2CCOC[C@H]21 [Compound 17] | 0.00481 | 7 | – | – | 23.9 | – | – | –
11 | CCN1C(=O)c2c(O)c(=O)c(C(=O)NCc3ccc(F)c(F)c3)cn2[C@H]2CCOC[C@H]21 [Compound 20] | 0.0096 | 1 | – | – | 34.1 | – | – | –
12 | CCN1C(=O)c2c(O)c(=O)c(C(=O)NCc3ccc(F)c(Cl)c3F)cn2[C@@H]2CCO[C@@H]21 [Compound 25a] | 0.00458 | 20 | – | – | 25.9 | – | – | –
13 | CCN1C(=O)c2c(O)c(=O)c(C(=O)NCc3c(F)cc(F)cc3F)cn2[C@@H]2CCO[C@@H]21 [Compound 26a] | 0.00527 | 15 | – | – | 24.3 | – | – | –
14 | CCN1C(=O)c2c(O)c(=O)c(C(=O)NCc3c(F)cc(F)cc3F)cn2[C@H]2CCO[C@H]21 [Compound 26b] | 0.00493 | 24 | – | – | 30.9 | – | – | –
15 | CN1C(=O)c2c(O)c(=O)c(C(=O)NCc3c(F)cc(F)cc3F)cn2[C@@H]2CCC[C@@H]21 [Compound 29] | – | – | – | – | – | – | – | 49
16 | CN1C(=O)c2c(O)c(=O)c(C(=O)NCc3c(F)cc(F)cc3F)cn2[C@H]2COC[C@H]21 [Compound 42] | 0.00567 | 3 | – | – | 31.9 | – | – | –
17 | CCN1C(=O)c2c(O)c(=O)c(C(=O)NCc3c(F)cc(F)cc3F)cn2[C@@H]2COC[C@@H]21 [Compound 45] | 0.00726 | 33 | – | – | 36.7 | – | – | –
18 | CCN1C(=O)c2c(O)c(=O)c(C(=O)NCc3ccc(F)c(C)c3F)cn2[C@H]2CCOC[C@H]21 [Compound 47] | 0.0057 | 9 | – | – | 27.2 | – | – | –
19 | CN1C(=O)c2c(O)c(=O)c(C(=O)NCc3c(F)cc(F)cc3F)cn2[C@H]2CCC[C@H]21 [Compound 58] | – | – | – | – | – | – | – | 25

Second part, led by results:

Row | EC50 (HIV-IIIb; [2]) [µM] | inhibition at 24 h, 15 µM (PXR (NR1I2); [3]) [%] | inhibition at 24 h, 15 µM (PXR (NR1I2)) [%] | SMILES | CC50 at 5 days ([1]; mock-infected) [µM] | CC50 at 5 days ([1]; mock-infected (uninfected)) [µM] | EC50 (HIV-IIIb) [µM] | inhibition at 15 µM (PXR (NR1I2)) [%] | inhibition at 15 µM (PXR (NR1I2); [3]) [%]
20 | 0.00345 | 6 | – | O=C(NCc1c(F)cc(F)cc1F)c1cn2c(c(O)c1=O)C(=O)N(C1CC1)[C@H]1OCC[C@H]12 (racemic) [Compound 21] | 31.1 | – | – | – | –
21 | 0.0039 | – | 46 | CN1C(=O)c2c(O)c(=O)c(C(=O)NCc3c(F)cc(F)cc3F)cn2[C@H]2CCCC[C@@H]21 [Compound 2] | – | 11.2 | – | – | –
22 | 0.00296 | – | – | CN1C(=O)c2c(O)c(=O)c(C(=O)NCc3c(F)cc(F)cc3F)cn2[C@@H]2CCCC[C@@H]21 [Compound 3] | – | 11 | – | – | –
23 | 0.00369 | 4 | – | CN1C(=O)c2c(O)c(=O)c(C(=O)NCc3ccc(F)c(Cl)c3F)cn2[C@@H]2CCOC[C@H]21 [Compound 11] | – | 8.32 | – | – | –
24 | 0.00289 | 26 | – | CN1C(=O)c2c(O)c(=O)c(C(=O)NCc3c(F)cc(F)cc3F)cn2[C@H]2COCC[C@]21C [Compound 14] | – | 11.6 | – | – | –
25 | 0.00213 | 7 | – | CCN1C(=O)c2c(O)c(=O)c(C(=O)NCc3cccc(Cl)c3F)cn2[C@H]2CCOC[C@H]21 [Compound 16] | – | 11.5 | – | – | –
26 | 0.00333 | 2 | – | CCN1C(=O)c2c(O)c(=O)c(C(=O)NCc3cccc(F)c3F)cn2[C@H]2CCOC[C@H]21 [Compound 18] | – | 26.9 | – | – | –
27 | 0.00428 | 11 | – | CCN1C(=O)c2c(O)c(=O)c(C(=O)NCc3ccc(F)c(F)c3F)cn2[C@H]2CCOC[C@H]21 [Compound 19] | – | 27.8 | – | – | –
28 | 0.00377 | 8 | – | CN1C(=O)c2c(O)c(=O)c(C(=O)NCc3c(F)cc(F)cc3F)cn2[C@@H]2CCO[C@@H]21 [Compound 23] | – | 18 | – | – | –
29 | 0.00117 | – | – | CN1C(=O)c2c(O)c(=O)c(C(=O)NCc3ccc(F)c(Cl)c3F)cn2[C@@H]2CCO[C@@H]21 [Compound 27] | – | 57.1 | – | – | –
30 | 0.0044 | 4 | – | O=C(NCc1c(F)cc(F)cc1F)c1cn2c(c(O)c1=O)C(=O)N[C@H]1CCC[C@H]12 [Compound 28] | – | 10.8 | – | – | –
31 | 0.00325 | 9 | – | CN1C(=O)c2c(O)c(=O)c(C(=O)NCc3c(F)cc(F)cc3F)cn2[C@@H]2CCOC[C@@H]21 [Compound 30] | – | 10.4 | – | – | –
32 | 0.00223 | 3 | – | O=C(NCc1c(F)cc(F)cc1F)c1cn2c(c(O)c1=O)C(=O)N(CC(F)F)[C@@H]1COCC[C@@H]12 [Compound 34] | – | 32.3 | – | – | –
33 | 0.0038 | 6 | – | O=C(NCc1c(F)cc(F)cc1F)c1cn2c(c(O)c1=O)C(=O)N(CC(F)(F)F)[C@@H]1COCC[C@H]12 [Compound 35] | – | 16.5 | – | – | –
34 | 0.00158 | 5 | – | O=C(NCc1ccc(F)c(Cl)c1F)c1cn2c(c(O)c1=O)C(=O)N(CC(F)F)[C@@H]1COCC[C@@H]12 [Compound 36] | – | 19.7 | – | – | –
35 | 0.00427 | 35 | – | CCCN1C(=O)c2c(O)c(=O)c(C(=O)NCc3c(F)cc(F)cc3F)cn2[C@H]2CCOC[C@H]21 [Compound 37] | – | 33.9 | – | – | –
36 | 0.00283 | 67 | – | CC(C)N1C(=O)c2c(O)c(=O)c(C(=O)NCc3c(F)cc(F)cc3F)cn2[C@H]2CCOC[C@H]21 [Compound 38] | – | 16.6 | – | – | –
37 | 0.00128 | – | 4 | CCN1C(=O)c2c(O)c(=O)c(C(=O)NCc3c(F)cc(F)cc3F)cn2[C@H]2CCC(=O)C[C@H]21 [Compound 40a] | – | 29 | – | – | –
38 | 0.00131 | – | 22 | CCN1C(=O)c2c(O)c(=O)c(C(=O)NCc3c(F)cc(F)cc3F)cn2[C@H]2CCC3(C[C@H]21)OCCO3 [Compound 40b] | – | 23.1 | – | – | –
39 | 0.00288 | 13 | – | CN1C(=O)c2c(O)c(=O)c(C(=O)NCc3c(F)cc(F)cc3F)cn2[C@@H]2COC[C@@H]21 [Compound 43] | – | 11.3 | – | – | –
40 | 0.00293 | 8 | – | CN1C(=O)c2c(O)c(=O)c(C(=O)NCc3c(F)cc(F)cc3F)cn2[C@@H]2COC[C@H]21 [Compound 46] | – | 28.2 | – | – | –
41 | 0.0043 | 1 | – | CN1C(=O)c2c(O)c(=O)c(C(=O)NCc3c(F)cc(F)cc3F)cn2[C@H]2CCOC[C@H]21 [Compound 48] | – | 32.3 | – | – | –
42 | 0.00332 | 1 | – | CN1C(=O)c2c(O)c(=O)c(C(=O)NCc3ccc(F)c(Cl)c3F)cn2[C@H]2CCOC[C@H]21 [Compound 49] | – | 12 | – | – | –
43 | 0.00268 | 1 | – | O=C(NCc1ccc(F)c(Cl)c1F)c1cn2c(c(O)c1=O)C(=O)N(CC(F)(F)F)[C@@H]1COCC[C@@H]12 [Compound 50] | – | 48.4 | – | – | –
